Assay results reported in patent US8455448B2, “Myostatin isoform” (Myostin Therapeutics Pty Ltd, priority 2004, dated 2013).

B1: roMSV65: 65 amino acid C-terminal peptide of ovine MSV (SEQ ID NO: 49) expressed as recombinant protein in E. coli (protein)
chain: VHFYTPPYGQWIFHKERKIIFLEVYIQFCSILGEAVFKRQSKSIHFCQNFKIIACLCNTAAFRMK
modifications: Ovis aries

Tests used:
[1] = test system: human skeletal muscle myoblasts; experiment: Proliferation assay of human primary myoblasts (methylene blue); assay type: cell-based; conditions: 0-10 μg/ml, 96 h, FIG. 12B
Method: Human skeletal muscle myoblasts (Cambrex, Australia) were seeded in 96-well tissue culture plates (Nunc, Roskilde, Denmark) at a cell density of 2000 cells per well in 200 μl of Skeletal Muscle Basal Medium (Cambrex, Australia) supplemented with foetal bovine serum (FBS, 10% v/v, Cambrex, Australia), and incubated overnight at 37° C. with 5% CO2. The medium was replaced with Dulbecco's modified Eagle's medium (DMEM, Invitrogen, California) supplemented with 5% foetal bovine serum (FBS, Invitrogen, California), penicillin (1×10^5 IU/l, Sigma, St Louis, Mo., USA) and streptomycin (100 mg/l, Sigma) buffered with NaHCO3 containing phenol red (7.22 nmol/l) as a pH indicator with 0, 0.1, 1, 5 and 10 μg/ml rhMSV38 or roMSV47 protein in a semi-random arrangement of eight replicates (n=8) for each test medium. Plates were incubated at 37° C. with 5% CO2 for 96 hours, and then the medium was removed. The wells were washed with 200 μl of phosphate buffered saline (PBS, Oxoid, UK) buffer and fixed with 100 μl of 10% formaldehyde, 0.9% NaCl solution for at least one hour. The fixative was then removed and 100 μl of 1% methylene blue stain in 0.01 M borate buffer (pH 8.5) was added to each well and incubated for 30 min at room temperature. Excess stain was removed by four sequential washes in borate buffer. Methylene blue was eluted from the cells by the addition of 100 μl 1:1 (v/v) ethanol/0.1 HCl. The plates were gently shaken and the absorbance was measured at 655 nm using a microplate photometer (VersaMax, Molecular Devices, CA).
Human skeletal muscle myoblasts (Cambrex, Australia) were seeded in 96-well tissue culture plates (Nunc, Roskilde, Denmark) at a cell density of 2000 cells per well in 200 μl of Skeletal Muscle Basal Medium (Cambrex, Australia) supplemented with foetal bovine serum (FBS, 10% v/v, Cambrex, Australia), and incubated overnight at 37° C. with 5% CO2. The medium was replaced with Dulbecco's modified Eagle's medium (DMEM, Invitrogen, California) supplemented with 5% foetal bovine serum (FBS, Invitrogen, California), penicillin (1×10^5 IU/l, Sigma, St Louis, Mo., USA) and streptomycin (100 mg/l, Sigma) buffered with NaHCO3 containing phenol red (7.22 nmol/l) as a pH indicator with no added protein, 1.5 or 3.0 μg/ml recombinant bovine mature myostatin alone and with combination of 0.3, 1, 3, 10 molar ratio of rhMSV38 to myostatin, and the same amounts of rhMSV38 without myostatin in a semi-random arrangement of eight replicates (n=8) for each test medium. Plates were incubated at 37° C. with 5% CO2 for 48 hours, and then the medium was removed. […] The plates were gently shaken and the absorbance was measured at 655 nm using a microplate photometer (VersaMax, Molecular Devices, CA).

[2] = test system: proliferating cell nuclear antigen (PCNA); experiment: PCNA protein in proliferating C2C12 myoblasts (Western blot); assay type: cell-based, murine; conditions: 0.1, 1, 10 μg/ml, 48 h, FIG. 7
Method: Thus, a decrease in p21 protein expression may indicate an increased cell proliferation rate. PCNA is a positive marker of cell proliferation. It is a subunit of DNA polymerase-delta during DNA replication in the cell cycle. Higher level of PCNA protein expression is associated with higher number of cells entering the DNA replication phase of the cell cycle.
C2C12 myoblasts were seeded in 10 cm diameter tissue culture plates (Nunc, Roskilde, Denmark) at a cell density of 3000 cells per cm^2 in 10 ml of Dulbecco's modified Eagle's medium (DMEM, Invitrogen, California) supplemented with foetal bovine serum (FBS, 10% v/v, Invitrogen), penicillin (1×105 IU/l, Sigma, St Louis, Mo., USA) and streptomycin (100 mg/l, Sigma) buffered with NaHCO3 containing phenol red (7.22 nmol/l) as a pH indicator, and incubated overnight at 37° C. with 5% CO2. The medium was replaced with the test medium: DMEM with 10% FBS supplemented with, 0.1, 1 or 10 μg/ml oMSV65 (n=3). The plates were then incubated at 37° C. with 5% CO2 for 48 hours. Cells were removed from the plate by trypsin treatment, washed with phosphate buffered saline (PBS, Oxoid, UK) and resuspended in 100 μl of lysis buffer (10 mM Hepes pH 7.9, 1.5 mM MgCl2, 10 mM KCl, 0.5% NP40, one Complete protease inhibitor tablet [Roche Diagnostics, USA] per 50 ml buffer). […] Band intensities were measured with a GS800 densitometer (BioRad, USA).

Row | Molecule | proliferation of human myoblasts [1] | PCNA protein levels in C2C12 myoblasts [2]
1 | roMSV47: 47 amino acid C-terminal mature ovine MSV fragment (SEQ ID NO: 50), recombinant from E. coli (IIFLEVYIQFCSILGEAVFKRQSKSIHFCQNFKIIACLCNTAAFRMK; Ovis aries) | able to stimulate human myoblast proliferation | –
2 | B1 | – | concentration-dependent increase in PCNA protein levels
